A short description of data set [1]: Determination of hydrolytic stability (5:1 dioxane/buffer, HPLC). Particulars: 5:1 dioxane/buffer solution, test ended after 24 or 192 hours, read-out: Hydrolytic stability t1/2. The class given is physicochemical.
The nature of data set [2]: Determination of hydrolytic stability in synthetic gastric juice (pH 1.2 buffer with pepsin). Particulars: 37° C., pH 1.2 with added pepsin, test ended after 24 hours, read-out: Hydrolytic stability t1/2 in synthetic gastric juice (converted). The class given is in vitro ADME. As to the method:
The esters to be analyzed were dissolved in each case in a buffer solution of pH 1.2 with added pepsin at 37° C. At different times, the content of ester and hydrolysis products (8S,11R,13S,14S,17S)-17-hydroxy-11-[4-((R)-1-hydroxyethyl)phenyl]-1 3-methyl-17-pentafluoroethyl-1,2,6,7,8,11,12,13,14,15,16,17-dodecahydrocyclopenta[a]phenanthren-3-one and/or (8S,11R,13S,14S,17S)-17-hydroxy-11-[4-((S)-1-hydroxyethyl)phenyl]-13-methyl-17-pentafluoroethyl-1,2,6,7,8,11,12,13,14,15,16,17-dodecahydrocyclopenta[a]phenanthren-3-one was determined by HPLC. The test was ended after 24 hours.

The nature of data set [3]: Determination of stability in human plasma. Type of data set: in vitro ADME.
A short description of data set [4]: Determination of stability in rat plasma. Particulars: 37° C., read-out: Stability t1/2 in rat plasma (converted). The class given is in vitro ADME.
Data set [5] addresses T1, human progesterone receptor B (Homo sapiens, UniProt P06401).
T1 construct: expressed in transfected cells; host or cells: SK-N-MC human neuroblastoma cells, stably transfected with pRChPR-B-neo and pMMTV-LUC
T1 sequence (P06401 1-933): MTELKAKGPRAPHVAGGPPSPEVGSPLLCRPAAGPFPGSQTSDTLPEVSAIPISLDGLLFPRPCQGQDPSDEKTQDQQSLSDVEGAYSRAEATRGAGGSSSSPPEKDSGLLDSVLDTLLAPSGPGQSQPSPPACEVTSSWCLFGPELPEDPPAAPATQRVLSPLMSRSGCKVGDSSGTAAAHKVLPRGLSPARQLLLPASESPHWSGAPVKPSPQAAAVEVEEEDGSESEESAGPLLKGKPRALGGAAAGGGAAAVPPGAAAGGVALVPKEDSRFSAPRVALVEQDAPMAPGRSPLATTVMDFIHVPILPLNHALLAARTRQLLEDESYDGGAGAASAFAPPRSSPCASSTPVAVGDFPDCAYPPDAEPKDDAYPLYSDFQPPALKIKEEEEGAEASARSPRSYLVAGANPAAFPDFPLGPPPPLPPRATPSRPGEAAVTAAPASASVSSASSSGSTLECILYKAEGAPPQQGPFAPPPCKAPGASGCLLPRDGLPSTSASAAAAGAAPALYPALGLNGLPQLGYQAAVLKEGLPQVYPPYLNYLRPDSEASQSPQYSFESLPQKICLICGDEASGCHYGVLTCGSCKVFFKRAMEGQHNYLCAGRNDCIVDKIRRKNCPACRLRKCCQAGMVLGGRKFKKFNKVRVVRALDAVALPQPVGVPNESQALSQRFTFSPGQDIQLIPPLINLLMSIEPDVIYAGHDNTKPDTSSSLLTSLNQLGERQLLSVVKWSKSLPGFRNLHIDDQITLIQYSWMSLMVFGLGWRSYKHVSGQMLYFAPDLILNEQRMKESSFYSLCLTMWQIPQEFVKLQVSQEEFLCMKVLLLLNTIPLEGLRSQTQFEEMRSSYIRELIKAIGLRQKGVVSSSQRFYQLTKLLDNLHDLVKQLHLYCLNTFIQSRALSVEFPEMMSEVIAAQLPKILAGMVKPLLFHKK
The data set is described as follows: Progesterone receptor transactivation test in stably transfected SK-N-MC cells (PR-B, MMTV-LUC reporter). The class given is cell-based. The note with it: 0.1 nmol/l promegestone, 24 hours, read-out: PR-B IC50 (antagonistic potency).

In general, IC50 refers to the concentration needed to halve the response being measured.

For `CC(C)C(=O)OC(C)c1ccc([C@H]2C[C@@]3(C)C(CC[C@@]3(O)C(F)(F)C(F)(F)F)C3CCC4=CC(=O)CCC4=C32)cc1` (mixture of isomers) [Example 2, Isobutyric acid (RS)-1-[4-((8S,11R,13S,14S,17S)-17-hydroxy-13-methyl-3-oxo-17-pentafluoroethyl-2,3,6,7,8,11,12,13,14,15,16,17-dodecahydro-1H-cyclopenta[a]-phenanthren-11-yl)phenyl]ethyl ester], the half-life was over 24 h in data set [1] (pH = 1.2, 23° C.); over 24 h in data set [1] (pH = 5.0, 23° C.); over 24 h in data set [1] (pH = 8.0, 23° C.); over 24 h in data set [2]; 803 h in data set [3] (37° C., read-out: Stability t1/2 in human plasma (converted)); over 100 h in data set [3] (method of working example 19, summary statement in description, read-out: half-life in human plasma). Moreover, the half-life in data set [4] was 33.4 h. Moreover, in data set [5], the IC50 was determined as 0.1 nM.

For the origin of these results see patent US9096639B2, “17-hydroxy-17-pentafluorethyl-estra-4,9(10)-dien-11-acyloxyalkylene phenyl derivatives, methods for the production thereof and use thereof for treating diseases” (Bayer Intellectual Property GmbH, priority 2009, dated 2015).
